According to patent US7074789B2, “Kinase inhibitors” (Amgen Inc., priority 1999, dated 2006):
Where “and” joins values, the source holds several entries; their conditions need not be identical. Equal values may be shown once.

Key:
Type in all cases: biochemical
Itk = target: T1, Itk (Homo sapiens, UniProt Q08881); assay: Kinase inhibition assay (33P transfer), Itk; conditions: read-out: Itk-1
T1 construct: Kinases are expressed as either kinase domains or full length constructs; made in house
T1 sequence (Q08881 1-620): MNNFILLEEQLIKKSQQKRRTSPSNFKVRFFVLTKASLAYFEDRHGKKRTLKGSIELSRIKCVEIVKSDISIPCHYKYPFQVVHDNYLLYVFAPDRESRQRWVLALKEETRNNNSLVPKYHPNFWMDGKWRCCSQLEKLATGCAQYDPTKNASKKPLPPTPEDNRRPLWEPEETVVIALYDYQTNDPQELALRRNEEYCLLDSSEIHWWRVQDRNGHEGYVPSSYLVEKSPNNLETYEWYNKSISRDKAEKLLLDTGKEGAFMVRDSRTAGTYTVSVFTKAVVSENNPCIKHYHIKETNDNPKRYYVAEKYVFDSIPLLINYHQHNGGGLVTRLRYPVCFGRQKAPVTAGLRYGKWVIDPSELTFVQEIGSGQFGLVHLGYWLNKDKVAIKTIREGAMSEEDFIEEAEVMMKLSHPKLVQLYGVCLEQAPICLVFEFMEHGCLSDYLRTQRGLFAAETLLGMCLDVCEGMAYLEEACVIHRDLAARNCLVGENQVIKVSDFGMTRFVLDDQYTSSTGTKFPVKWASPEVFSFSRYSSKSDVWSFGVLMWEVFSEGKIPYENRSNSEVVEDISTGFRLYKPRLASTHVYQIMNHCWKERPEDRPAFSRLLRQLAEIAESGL
How it was run: (§1)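 Read-out: scintillation counts of 33P moved from ATP onto synthetic peptide polymer coated on the well surface, after washing with 0.5% phosphoric acid. Enzymes were tagged (GST or polyHistidine) and came from bacterial or insect-cell expression. IC50 marks 50% loss of incorporated label.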

IGFR-1 = target: T2, IGFR-1 (Homo sapiens, UniProt P08069); assay: Kinase inhibition assay, IGFR-1 (Table 2); conditions: Table 2, kinase inhibition class
T2 construct: Kinases are expressed as either kinase domains or full length constructs; made in house
T2 sequence (P08069 31-1367): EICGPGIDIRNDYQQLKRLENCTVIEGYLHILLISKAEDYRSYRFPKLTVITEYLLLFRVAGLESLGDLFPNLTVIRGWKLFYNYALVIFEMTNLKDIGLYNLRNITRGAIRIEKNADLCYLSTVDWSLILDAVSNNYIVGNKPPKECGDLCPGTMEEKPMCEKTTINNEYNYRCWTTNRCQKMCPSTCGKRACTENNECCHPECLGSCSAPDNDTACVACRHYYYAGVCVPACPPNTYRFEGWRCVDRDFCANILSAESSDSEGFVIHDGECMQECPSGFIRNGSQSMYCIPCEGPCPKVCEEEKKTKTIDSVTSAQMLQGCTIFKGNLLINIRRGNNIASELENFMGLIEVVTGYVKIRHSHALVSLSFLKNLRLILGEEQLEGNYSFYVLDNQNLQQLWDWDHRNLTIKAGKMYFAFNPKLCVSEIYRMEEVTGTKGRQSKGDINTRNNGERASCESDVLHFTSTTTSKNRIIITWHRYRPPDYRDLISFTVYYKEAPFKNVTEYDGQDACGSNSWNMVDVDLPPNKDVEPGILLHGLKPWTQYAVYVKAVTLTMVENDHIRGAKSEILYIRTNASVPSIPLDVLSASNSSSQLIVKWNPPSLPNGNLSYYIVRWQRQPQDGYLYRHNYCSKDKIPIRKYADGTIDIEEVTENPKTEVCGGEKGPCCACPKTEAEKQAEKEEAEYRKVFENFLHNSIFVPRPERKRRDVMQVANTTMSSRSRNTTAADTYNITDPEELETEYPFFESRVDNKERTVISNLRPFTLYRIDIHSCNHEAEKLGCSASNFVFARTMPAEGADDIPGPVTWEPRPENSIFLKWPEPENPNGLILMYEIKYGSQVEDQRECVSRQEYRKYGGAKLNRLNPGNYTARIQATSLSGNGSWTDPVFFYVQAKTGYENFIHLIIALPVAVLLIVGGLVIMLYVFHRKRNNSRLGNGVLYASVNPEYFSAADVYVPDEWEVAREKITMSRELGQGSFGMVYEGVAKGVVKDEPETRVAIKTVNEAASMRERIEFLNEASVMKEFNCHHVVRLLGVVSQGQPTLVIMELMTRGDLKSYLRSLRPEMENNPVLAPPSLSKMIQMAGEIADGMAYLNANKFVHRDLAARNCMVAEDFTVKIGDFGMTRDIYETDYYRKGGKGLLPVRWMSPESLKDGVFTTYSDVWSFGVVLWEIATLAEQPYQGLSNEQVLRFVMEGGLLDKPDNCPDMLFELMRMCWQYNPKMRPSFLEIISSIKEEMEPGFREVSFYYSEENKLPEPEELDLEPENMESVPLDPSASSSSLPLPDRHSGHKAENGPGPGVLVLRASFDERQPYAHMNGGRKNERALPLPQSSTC

Zap-70 = target: T3, Zap-70 (Homo sapiens, UniProt P43403); assay: Kinase inhibition assay (33P transfer), Zap-70; conditions: read-out: Zap-1
T3 construct: Kinases are expressed as either kinase domains or full length constructs; made in house
T3 sequence (P43403 1-619): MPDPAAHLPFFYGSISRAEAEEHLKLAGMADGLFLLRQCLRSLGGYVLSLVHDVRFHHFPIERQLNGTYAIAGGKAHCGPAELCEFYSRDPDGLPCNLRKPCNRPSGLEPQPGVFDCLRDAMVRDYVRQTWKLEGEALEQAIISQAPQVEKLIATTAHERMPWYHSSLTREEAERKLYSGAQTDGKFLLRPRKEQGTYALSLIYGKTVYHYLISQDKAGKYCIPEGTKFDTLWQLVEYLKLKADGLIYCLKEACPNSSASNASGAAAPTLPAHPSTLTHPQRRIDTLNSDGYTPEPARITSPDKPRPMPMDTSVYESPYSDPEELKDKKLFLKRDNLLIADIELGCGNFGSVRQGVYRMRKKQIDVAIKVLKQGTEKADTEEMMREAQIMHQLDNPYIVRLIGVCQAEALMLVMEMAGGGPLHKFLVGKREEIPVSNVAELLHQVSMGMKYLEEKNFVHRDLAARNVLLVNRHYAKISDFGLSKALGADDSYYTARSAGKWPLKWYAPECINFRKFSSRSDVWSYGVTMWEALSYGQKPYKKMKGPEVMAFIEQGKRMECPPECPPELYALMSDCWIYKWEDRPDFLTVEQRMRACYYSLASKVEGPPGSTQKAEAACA
How it was run: (§2)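 Recombinant kinase-domain or full-length fusion proteins (GST or His tag) served as enzyme. Substrate poly(Glu,Tyr) 4:1 or poly(Arg,Ser) 3:1 was bound to the plate; transferred 33P was read by liquid scintillation following acid washing.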

AKT = target: T4, AKT (Homo sapiens, UniProt Q9Y243); assay: Kinase inhibition assay (33P transfer), AKT; conditions: Table 2, kinase inhibition class; read-out: AKT3-1
T4 construct: Kinases are expressed as either kinase domains or full length constructs; made in house
T4 sequence (Q9Y243 whole entry, the tested form may be a part): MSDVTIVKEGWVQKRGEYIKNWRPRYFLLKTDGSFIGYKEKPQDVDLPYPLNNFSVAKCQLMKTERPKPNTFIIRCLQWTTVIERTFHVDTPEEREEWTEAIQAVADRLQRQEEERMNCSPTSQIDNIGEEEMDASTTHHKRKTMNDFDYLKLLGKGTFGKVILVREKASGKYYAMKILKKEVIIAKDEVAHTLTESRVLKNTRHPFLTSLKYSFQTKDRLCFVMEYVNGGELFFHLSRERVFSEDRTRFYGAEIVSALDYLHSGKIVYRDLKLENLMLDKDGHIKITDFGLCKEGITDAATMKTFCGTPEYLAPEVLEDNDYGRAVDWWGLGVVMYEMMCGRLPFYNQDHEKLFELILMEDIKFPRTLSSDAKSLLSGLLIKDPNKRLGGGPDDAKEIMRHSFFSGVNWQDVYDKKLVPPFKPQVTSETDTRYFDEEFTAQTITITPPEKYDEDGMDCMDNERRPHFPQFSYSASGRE
How it was run: as §2

Lck = target: T5, Lck (Homo sapiens, UniProt P06239); assay: Kinase inhibition assay (33P transfer), Lck; conditions: read-out: Lck-1
T5 construct: Kinases are expressed as either kinase domains or full length constructs; made in house
T5 sequence (P06239 whole entry, species assumed, the tested form may be a part): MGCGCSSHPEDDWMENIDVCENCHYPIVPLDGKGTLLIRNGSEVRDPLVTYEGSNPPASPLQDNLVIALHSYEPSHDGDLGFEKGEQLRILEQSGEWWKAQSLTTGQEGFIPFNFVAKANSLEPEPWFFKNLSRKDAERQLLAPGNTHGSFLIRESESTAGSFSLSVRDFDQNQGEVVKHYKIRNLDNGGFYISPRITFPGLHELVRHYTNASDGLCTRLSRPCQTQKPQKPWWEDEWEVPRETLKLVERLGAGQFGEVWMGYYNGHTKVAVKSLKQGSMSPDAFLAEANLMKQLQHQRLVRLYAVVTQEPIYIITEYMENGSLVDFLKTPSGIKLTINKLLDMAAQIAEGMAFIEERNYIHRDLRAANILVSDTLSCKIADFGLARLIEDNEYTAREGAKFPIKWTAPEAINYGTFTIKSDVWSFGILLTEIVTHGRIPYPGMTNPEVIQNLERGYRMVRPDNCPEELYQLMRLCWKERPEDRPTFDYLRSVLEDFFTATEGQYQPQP
How it was run: as §2

Kdr = target: T6, Kdr (Homo sapiens, UniProt P35968); assay: Kinase inhibition assay (33P transfer), Kdr; conditions: read-out: KDR-1
T6 construct: Kinases are expressed as either kinase domains or full length constructs; made in house
T6 sequence (P35968 20-1356, species assumed): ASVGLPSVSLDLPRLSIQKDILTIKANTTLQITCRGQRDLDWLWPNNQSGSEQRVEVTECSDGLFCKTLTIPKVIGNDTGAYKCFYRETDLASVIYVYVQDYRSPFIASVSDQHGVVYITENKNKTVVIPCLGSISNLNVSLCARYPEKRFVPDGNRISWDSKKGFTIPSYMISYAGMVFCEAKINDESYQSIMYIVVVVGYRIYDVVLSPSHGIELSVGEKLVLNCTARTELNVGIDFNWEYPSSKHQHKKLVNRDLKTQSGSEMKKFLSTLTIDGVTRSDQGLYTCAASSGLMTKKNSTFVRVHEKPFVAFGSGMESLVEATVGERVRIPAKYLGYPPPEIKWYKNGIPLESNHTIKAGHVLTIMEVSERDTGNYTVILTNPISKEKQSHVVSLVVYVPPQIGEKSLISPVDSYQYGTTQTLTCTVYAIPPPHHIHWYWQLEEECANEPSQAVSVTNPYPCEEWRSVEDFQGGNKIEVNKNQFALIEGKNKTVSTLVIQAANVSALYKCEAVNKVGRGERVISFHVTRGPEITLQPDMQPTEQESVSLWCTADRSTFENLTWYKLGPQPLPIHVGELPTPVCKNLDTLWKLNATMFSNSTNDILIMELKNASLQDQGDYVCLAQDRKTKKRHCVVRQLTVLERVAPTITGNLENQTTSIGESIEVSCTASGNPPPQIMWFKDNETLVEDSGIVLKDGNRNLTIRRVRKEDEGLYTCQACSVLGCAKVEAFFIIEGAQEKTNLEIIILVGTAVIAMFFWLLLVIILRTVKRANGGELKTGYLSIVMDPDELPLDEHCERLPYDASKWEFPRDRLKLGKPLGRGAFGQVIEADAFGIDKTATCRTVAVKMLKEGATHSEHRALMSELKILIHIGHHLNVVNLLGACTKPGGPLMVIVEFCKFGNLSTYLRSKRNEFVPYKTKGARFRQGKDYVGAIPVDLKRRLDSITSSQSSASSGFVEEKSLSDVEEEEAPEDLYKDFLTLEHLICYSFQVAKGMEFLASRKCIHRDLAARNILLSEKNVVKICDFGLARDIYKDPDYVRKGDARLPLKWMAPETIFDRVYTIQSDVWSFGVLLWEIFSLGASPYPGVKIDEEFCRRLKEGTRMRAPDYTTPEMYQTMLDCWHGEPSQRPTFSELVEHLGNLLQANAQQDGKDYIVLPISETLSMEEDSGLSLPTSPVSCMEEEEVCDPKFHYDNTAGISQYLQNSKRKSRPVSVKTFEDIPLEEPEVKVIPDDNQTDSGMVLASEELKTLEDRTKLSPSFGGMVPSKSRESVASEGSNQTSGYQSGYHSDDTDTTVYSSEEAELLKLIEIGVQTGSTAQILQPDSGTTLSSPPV
How it was run: as §2

EGFR = target: T7, EGFR (Homo sapiens, UniProt P00533); assay: Kinase inhibition assay (33P transfer), EGFR; conditions: Table 2, kinase inhibition class; read-out: EGFR-1
T7 construct: Kinases are expressed as either kinase domains or full length constructs; made in house
How it was run: as §1

c-Met = target: T8, c-Met (Homo sapiens, UniProt P08581); assay: Kinase inhibition assay (33P transfer), c-Met; conditions: Table 2, kinase inhibition class; read-out: Met-1
T8 construct: Kinases are expressed as either kinase domains or full length constructs; made in house
T8 sequence (P08581 25-1390): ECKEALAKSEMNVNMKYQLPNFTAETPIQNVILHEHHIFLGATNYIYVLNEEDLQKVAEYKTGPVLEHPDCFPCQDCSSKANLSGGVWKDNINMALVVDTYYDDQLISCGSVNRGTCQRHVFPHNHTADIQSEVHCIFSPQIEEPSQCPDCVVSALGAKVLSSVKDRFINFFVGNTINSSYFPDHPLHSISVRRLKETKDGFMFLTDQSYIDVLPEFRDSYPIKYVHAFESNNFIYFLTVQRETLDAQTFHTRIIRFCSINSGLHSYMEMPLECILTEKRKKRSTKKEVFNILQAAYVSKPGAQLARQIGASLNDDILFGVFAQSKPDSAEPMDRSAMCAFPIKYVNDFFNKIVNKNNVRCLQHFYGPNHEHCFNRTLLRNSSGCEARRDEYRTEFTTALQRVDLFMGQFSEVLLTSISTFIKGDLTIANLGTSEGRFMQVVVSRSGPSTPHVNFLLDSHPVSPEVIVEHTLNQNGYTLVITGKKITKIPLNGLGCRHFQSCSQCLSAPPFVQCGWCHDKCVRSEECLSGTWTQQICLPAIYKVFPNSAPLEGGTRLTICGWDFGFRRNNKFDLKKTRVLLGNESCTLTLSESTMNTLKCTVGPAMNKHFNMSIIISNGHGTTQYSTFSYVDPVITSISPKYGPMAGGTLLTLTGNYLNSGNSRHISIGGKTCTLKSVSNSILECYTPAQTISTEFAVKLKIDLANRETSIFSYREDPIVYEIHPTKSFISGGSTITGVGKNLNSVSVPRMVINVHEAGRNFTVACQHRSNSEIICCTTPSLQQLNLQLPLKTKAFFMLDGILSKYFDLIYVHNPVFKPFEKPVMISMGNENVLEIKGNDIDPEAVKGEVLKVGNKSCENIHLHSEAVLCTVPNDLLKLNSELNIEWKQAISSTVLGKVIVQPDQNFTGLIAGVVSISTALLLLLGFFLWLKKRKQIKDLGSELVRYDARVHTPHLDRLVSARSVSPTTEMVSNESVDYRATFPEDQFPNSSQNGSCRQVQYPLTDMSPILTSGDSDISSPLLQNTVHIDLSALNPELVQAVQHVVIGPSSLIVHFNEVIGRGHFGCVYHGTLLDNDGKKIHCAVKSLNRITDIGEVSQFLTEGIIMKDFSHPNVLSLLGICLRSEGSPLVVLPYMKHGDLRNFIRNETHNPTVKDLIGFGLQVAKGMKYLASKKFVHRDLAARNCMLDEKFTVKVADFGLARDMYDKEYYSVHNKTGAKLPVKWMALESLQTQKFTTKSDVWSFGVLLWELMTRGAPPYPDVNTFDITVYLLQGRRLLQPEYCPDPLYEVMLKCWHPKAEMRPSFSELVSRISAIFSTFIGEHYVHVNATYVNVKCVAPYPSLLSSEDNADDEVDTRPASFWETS
How it was run: as §1

PDGFRB = target: T9, PDGFRB (Homo sapiens, UniProt P09619); assay: Kinase inhibition assay (33P transfer), PDGFRB; conditions: read-out: PDGFRB-1
T9 construct: Kinases are expressed as either kinase domains or full length constructs; made in house

ErbB2 = target: T10, ErbB2 (Homo sapiens, UniProt P04626); assay: Kinase inhibition assay (33P transfer), ErbB2; conditions: read-out: ErbB2-2
T10 construct: Kinases are expressed as either kinase domains or full length constructs; made in house
How it was run: as §1

| Structure (SMILES) | IC50 (Itk) [µM] | IC50 (IGFR-1) [µM] | IC50 (Zap-70) [µM] | IC50 (AKT) [µM] | IC50 (Lck) [µM] | IC50 (Kdr) [µM] | IC50 (EGFR) [µM] | IC50 (c-Met) [µM] | IC50 (PDGFRB) [µM] | IC50 (ErbB2) |
| --- | --- | --- | --- | --- | --- | --- | --- | --- | --- | --- |
| COc1cc(Nc2ncnc(-n3c(NCc4cccc([N+](=O)[O-])c4)nc4ccccc43)n2)cc(OC)c1OC [Compound 572] | > 8.51 | > 8.51 | > 8.51 | > 8.51 | 0.757 to 4.54 | < 0.757 | > 8.51 | 6.62 to 8.51 | < 0.757 | 6.62 to 8.51 µM |
| COc1cc(Nc2ncnc(-n3c(NCc4ccc(C)cc4C)nc4ccccc43)n2)cc(OC)c1OC [Compound 584] | > 8.8 | > 8.8 | > 8.8 | > 8.8 | 0.782 to 4.69 | 0.782 to 4.69 | 4.69 to 6.84 | 6.84 to 8.8 | > 8.8 | 4.69 to 6.84 µM and 0.782 to 4.69 µM |
| Nc1nc2ccccc2n1-c1ncnc(Nc2cccc(CC(=O)O)c2)n1 [Compound 544] | > 12.5 | < 1.11 | > 12.5 | > 12.5 | > 12.5 | < 1.11 | > 12.5 | > 12.5 | 1.11 to 6.64 | > 12.5 µM |
| COc1cc(Nc2ncnc(NC3CC3c3ccccc3)n2)cc(OC)c1OCCN1CCOCC1 (centres unmarked) [Compound 563] | > 9.14 | 0.812 to 4.87 | > 9.14 | > 9.14 | < 0.812 | 0.812 to 4.87 | < 0.812 | 4.87 to 7.11 | 0.812 to 4.87 | 0.812 to 4.87 µM |
| CCN(c1ccc(C)cc1)c1ncnc(Nc2cc(OC)c(OC)c(OC)c2)n1 [Compound 538] | 8.85 to 11.4 | < 1.01 | > 11.4 | > 11.4 | 1.01 to 6.07 | < 1.01 | < 1.01 | < 1.01 | 1.01 to 6.07 | 1.01 to 6.07 µM |
| COc1ccc(CNc2nc3ccccc3n2-c2ncnc(Nc3cccc(CC(=O)O)c3)n2)cc1 [Compound 534] | > 9.35 | > 9.35 | > 9.35 | > 9.35 | 7.27 to 9.35 | < 0.831 | > 9.35 | > 9.35 | 0.831 to 4.98 | > 9.35 µM |
| CCN(c1cccc(C)c1)c1ncnc(Nc2cc(OC)c(OC)c(OC)c2)n1 [Compound 537] | 8.85 to 11.4 | 1.01 to 6.07 | > 11.4 | > 11.4 | < 1.01 | < 1.01 | < 1.01 | 1.01 to 6.07 | 1.01 to 6.07 | 1.01 to 6.07 µM |
| Brc1cccc(Nc2ncnc(Nc3cccc(Br)c3)n2)c1 [Compound 539] | 8.31 to 10.7 | 5.7 to 8.31 | 0.95 to 5.7 | 8.31 to 10.7 | 8.31 to 10.7 | 0.95 to 5.7 | < 0.95 | 8.31 to 10.7 | 8.31 to 10.7 | 0.95 to 5.7 µM |

The remaining lines, values ahead:

| IC50 (Itk) [µM] | IC50 (IGFR-1) [µM] | IC50 (Zap-70) [µM] | IC50 (AKT) [µM] | IC50 (Lck) [µM] | IC50 (Kdr) [µM] | IC50 (EGFR) [µM] | IC50 (c-Met) [µM] | IC50 (PDGFRB) [µM] | IC50 (ErbB2) | Structure (SMILES) |
| --- | --- | --- | --- | --- | --- | --- | --- | --- | --- | --- |
| 4.24 to 6.18 | < 0.706 | > 7.94 | > 7.94 | 0.706 to 4.24 | > 7.94 | > 7.94 | < 0.706 | > 7.94 | 4.24 to 6.18 µM | COc1cc(Nc2ncnc(Nc3cc(-c4ccc(C(=O)NCCc5ccccc5)cc4)n[nH]3)n2)cc(OC)c1OC [Compound 1006] |
| 0.791 to 4.75 | 0.791 to 4.75 | 0.791 to 4.75 | 0.791 to 4.75 | 0.791 to 4.75 | < 0.791 | 0.791 to 4.75 | 0.791 to 4.75 | 0.791 to 4.75 | 4.75 to 6.92 µM | COc1ccc(CNc2nc3ccccc3n2-c2ncnc(Nc3cccc(Cc4nnn[nH]4)c3)n2)cc1 [Compound 959] |
| > 12.1 | > 12.1 | > 12.1 | > 12.1 | > 12.1 | > 12.1 | 6.46 to 9.42 | > 12.1 | 9.42 to 12.1 | 6.46 to 9.42 µM | CC1CCc2ccccc2N1c1ncnc(N2c3ccccc3CCC2C)n1 (centres unmarked) [Compound 622] |
| > 13.6 | > 13.6 | > 13.6 | > 13.6 | > 13.6 | > 13.6 | > 13.6 | > 13.6 | 10.6 to 13.6 | 1.21 to 7.24 µM | COc1ccc(Nc2ncnc(NC[C@@H]3CCCO3)n2)cc1OC [Compound 790] |
| > 14.4 | > 14.4 | > 14.4 | > 14.4 | 1.28 to 7.67 | > 14.4 | < 1.28 | 1.28 to 7.67 | 1.28 to 7.67 | > 14.4 µM | CN(c1cccc(Cl)c1)c1ncnc(Nc2ccncc2)n1 [Compound 756] |
| > 9.5 | 7.39 to 9.5 | > 9.5 | > 9.5 | < 0.845 | < 0.845 | > 9.5 | 7.39 to 9.5 | < 0.845 | > 9.5 µM | COc1cc(Nc2ncnc(-c3cccnc3Nc3cccc(C(N)=O)c3)n2)cc(OC)c1OC [Compound 1090] |
| > 10.9 | > 10.9 | 5.8 to 8.46 | > 10.9 | > 10.9 | 8.46 to 10.9 | > 10.9 | 8.46 to 10.9 | > 10.9 | > 10.9 µM | c1ccc(Cn2ncc3cc(Nc4ncnc(NCC5CCCCC5)n4)ccc32)cc1 [Compound 727] |
| > 13.5 | > 13.5 | > 13.5 | > 13.5 | > 13.5 | > 13.5 | > 13.5 | > 13.5 | > 13.5 | > 13.5 µM | Cc1ccc2c(c1)CCCN2c1ncnc(NCc2ccccn2)n1 [Compound 769] |
| > 11.4 | > 11.4 | > 11.4 | > 11.4 | > 11.4 | > 11.4 | > 11.4 | > 11.4 | > 11.4 | > 11.4 µM | CN(c1cccc(Cl)c1)c1ncnc(N[C@@H]2CCN(Cc3ccccc3)C2)n1 [Compound 755] |
| 1.07 to 6.41 | 1.07 to 6.41 | > 12 | > 12 | 1.07 to 6.41 | 1.07 to 6.41 | 1.07 to 6.41 | < 1.07 | < 1.07 | 1.07 to 6.41 µM | Cc1ccc2c(c1)CCCN2c1ncnc(Nc2ccc3ncsc3c2)n1 [Compound 773] |
| > 12 | > 12 | > 12 | > 12 | 1.07 to 6.41 | 1.07 to 6.41 | < 1.07 | 1.07 to 6.41 | 1.07 to 6.41 | 1.07 to 6.41 µM | CC(=O)Nc1ccc(Nc2ncnc(N3CCCc4cc(C)ccc43)n2)cc1 [Compound 760] |
| > 11 | > 11 | 8.59 to 11 | > 11 | 0.982 to 5.89 | 8.59 to 11 | 0.982 to 5.89 | 5.89 to 8.59 | > 11 | 8.59 to 11 µM | COc1cc(Nc2ncnc(N[C@@H]3CCCc4ccccc43)n2)cc(OC)c1OC [Compound 620] |
